Experimental data published in patent US20260137706A1, “METHODS OF TREATING INFLAMMATORY DISEASES” (INTERLINE THERAPEUTICS, INC., priority 2023, published 2026).

Experiments:
[1] = tested on: NF-κB pathway (SEAP) in THP1-Dual cells; experiment: THP-1 Dual cell SEAP assay (L18-MDP stimulated); assay type: cell-based; settings: Homo sapiens, THP1-Dual, read-out: NF-κB THP1 IC50 bin
How it was run: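 THP1-Dual cells (~25,000/well) were preincubated 30 min with serially diluted compounds, then stimulated with 10 ng/mL L18-MDP (final) for 20-24 h at 37 °C. Supernatant SEAP was read with QUANTI-Blue at OD 620-655 nm after 2 h. IC50 came from non-linear fits of % inhibition versus DMSO/L18-MDP controls after media-blank subtraction.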

[2] = target: T1, binding of His-XIAP(BIR2)-avi fusion protein to GST-RIPK2 fusion protein (RIPK2/XIAP) (Homo sapiens, UniProt O43353); experiment: RIPK2-XIAP binding competition PPI assay (TR-FRET); settings: RIPK2/XIAP binding competition PPI assay; for Emax: Amax, read-out: PPI Amax bin; for IC50: read-out: PPI IC50 bin
T1 construct: made in house; host or cells: baculovirus infected Sf9 cells
How it was run: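 Compounds (in DMSO, 100-fold stock) incubated 120 min at 23 °C with 1 nM GST-RIPK2 (aa 1-310) and 25 nM His-XIAP(BIR2 aa 152-231)-avi, plus anti-His-XL665 and anti-GST-Tb, in pH 7.5 Tris buffer. Read-out: 665/520 nm emission ratio. Normalized to no-inhibitor (0%) and 50 nM GSK583 (−100%); Amax binned A–D.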

[3] = target: T2, GST-RIPK2 fusion protein (human RIPK2, amino acids 1-310) (Homo sapiens, UniProt O43353); experiment: RIPK2 binding competition assay (TR-FRET, Tracer 199 displacement); settings: 10 nM Tracer 199, 1 nM GST-RIPK2, read-out: RIPK2 IC50
T2 construct: made in house; host or cells: baculovirus infected Sf9 cells
How it was run: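 GST-RIPK2 (human aa 1-310, Sf9-expressed; final 1 nM) with Tracer 199 (final 10 nM) and Tb-anti-GST (final 0.5 nM) in Tris pH 7.5 buffer, 45 min at 22 °C. TR-FRET 665/620 nm ratio after 337 nm excitation; normalized to no-inhibitor (0%) and no-protein (−100%), giving IC50.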

T1 sequence (O43353 1-310 limits assumed): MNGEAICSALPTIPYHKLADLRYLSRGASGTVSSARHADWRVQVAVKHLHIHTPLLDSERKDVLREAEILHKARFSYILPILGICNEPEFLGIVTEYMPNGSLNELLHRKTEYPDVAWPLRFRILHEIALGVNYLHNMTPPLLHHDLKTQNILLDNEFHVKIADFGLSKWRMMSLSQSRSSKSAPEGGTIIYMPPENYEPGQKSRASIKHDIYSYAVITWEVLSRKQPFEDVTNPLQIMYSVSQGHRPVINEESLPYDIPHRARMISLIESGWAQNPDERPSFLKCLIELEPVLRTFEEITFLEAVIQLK
T2 sequence (O43353 1-310): as the sequence (O43353 1-310 limits assumed) above

Compound	IC50 [1] [nM]	Emax [2] [%]	IC50 [2] [nM]	IC50 [3] [nM]
CC(C)(C)S(=O)(=O)c1cn2c(-c3cnc4nccn4c3)cnc2cc1OCCO [Example 235, 2-((6-(tert-butylsulfonyl)-3-(imidazo[1,2-a]pyrimidin-6-yl)imidazo[1,2-a]pyridin-7-yl)oxy)ethan-1-ol]	> 1000	< 30	> 20	> 20
CC(C)(C)S(=O)(=O)c1cn2c(-c3cc4c(F)c[nH]c4nc3F)cnc2cc1OCCO [Example 236, 2-((6-(tert-butylsulfonyl)-3-(3,6-difluoro-1H-pyrrolo[2,3-b]pyridin-5-yl)imidazo[1,2-a]pyridin-7-yl)oxy)ethan-1-ol]	< 50	> 80	< 1	< 1
CC(C)(C)S(=O)(=O)c1cn2c(-c3cnc4c(c3)C3(CC3)CN4)cnc2cc1OCCO [Example 237, 2-((6-(tert-butylsulfonyl)-3-(1′,2′-dihydrospiro [cyclopropane-1,3′-pyrrolo[2,3-b]pyridin] -5′-yl)imidazo[1,2-a]pyridin-7-yl)oxy)ethan-1-ol]	> 1000	< 30	> 20	> 20
CCOc1cc2ncc(-c3cc4cc[nH]c4nc3F)n2cc1S(=O)(=O)C(C)C [Example 238, 7-ethoxy-3-(6-fluoro-1H-pyrrolo[2,3-b]pyridin-5-yl)-6-(isopropylsulfonyl) imidazo[1,2-a]pyridine]	50 to 250	> 80	1 to 2.5	1 to 2.5
CC(N)COc1cc2ncc(-c3cc(Cl)c(N)nc3F)n2cc1S(=O)(=O)C(C)(C)C (stereo not shown) [Example 239, 5-(7-(2-aminopropoxy)-6-(tert-butylsulfonyl)imidazo [1,2-a]pyridin-3-yl)-3-chloro-6-fluoropyridin-2-amine]	250 to 1000	> 80	2.5 to 20	2.5 to 20
CC(C)(O)COc1cc2ncc(-c3cc(Cl)c(N)nc3F)n2cc1S(=O)(=O)C(C)(C)C [Example 240, 1-((3-(6-amino-5-chloro-2-fluoropyridin-3-yl)-6-(tert-butylsulfonyl)imidazo [1,2-a]pyridin-7-yl)oxy)-2-methylpropan-2-ol]	50 to 250	> 80	1 to 2.5	1 to 2.5
CC(C)(N)COc1cc2ncc(-c3cc(Cl)c(N)nc3F)n2cc1S(=O)(=O)C(C)(C)C [Example 241, 5-(7-(2-amino-2-methylpropoxy)-6-(tert-butylsulfonyl)imidazo [1,2-a]pyridin-3-yl)-3-chloro-6-fluoropyridin-2-amine]	250 to 1000	> 80	2.5 to 20	2.5 to 20
CCS(=O)(=O)c1cn2c(-c3cc(F)c(OC)c(NS(=O)(=O)c4cnn(C)c4)c3)cnc2cc1OC [Example 242, N-(5-(6-(ethylsulfonyl)-7-methoxyimidazo[1,2-a]pyridin-3-yl)-3-fluoro-2-methoxyphenyl)-1-methyl-1H-pyrazole-4-sulfonamide]	50 to 250	> 80	< 1	< 1
CC(C)(C)S(=O)(=O)c1cn2c(-c3cc(Cl)c(N)nc3F)cnc2cc1OCC(F)(F)CN [Example 243, 5-(7-(3-amino-2,2-difluoropropoxy)-6-(tert-butylsulfonyl)imidazo [1,2-a]pyridin-3-yl)-3-chloro-6-fluoropyridin-2-amine]	50 to 250	> 80	1 to 2.5	1 to 2.5
COc1cc2ncc(-c3cc(NS(=O)(=O)c4cnn(C)c4)c(OC)c(OC)c3)n2cc1S(=O)(=O)C(C)(C)C [Example 244, N-(5-(6-(tert-butylsulfonyl)-7-methoxyimidazo[1,2-a]pyridin-3-yl)-2,3-dimethoxyphenyl)-1-methyl-1H-pyrazole-4-sulfonamide]	< 50	> 80	< 1	1 to 2.5
COc1cc(-c2cnc3cc(OCCO)c(S(=O)(=O)C(C)(C)C)cn23)cc(NS(=O)(=O)c2cnn(C)c2)c1OC [Example 245, N-(5-(6-(tert-butylsulfonyl)-7-(2-hydroxyethoxy)imidazo [1,2-a]pyridin-3-yl)-2,3-dimethoxyphenyl)-1-methyl-1H-pyrazole-4-sulfonamide]	< 50	> 80	< 1	1 to 2.5
CC(C)(C)S(=O)(=O)c1cc2c(-c3cc(F)c(N)nc3F)cnn2cc1OCC(O)CO (stereo not shown) [Example 246, 3-((3-(6-amino-2,5-difluoropyridin-3-yl)-5-(tert-butylsulfonyl)pyrazolo [1,5-a]pyridin-6-yl)oxy)propane-1,2-diol]	50 to 250	> 80	1 to 2.5	1 to 2.5
CC(C)(C)S(=O)(=O)c1cc2c(-c3cc(Cl)c(N)nc3F)cnn2cc1OCC(O)CO (stereo not shown) [Example 247, 3-((3-(6-amino-5-chloro-2-fluoropyridin-3-yl)-5-(tert-butylsulfonyl)pyrazolo [1,5-a]pyridin-6-yl)oxy)propane-1,2-diol]	50 to 250	> 80	1 to 2.5	1 to 2.5
COc1cc2ncc(-c3cc(F)c(OC)c(NS(=O)(=O)c4cnc(O)nc4)c3)n2cc1S(=O)(=O)C(C)(C)C [Example 248, N-(5-(6-(tert-butylsulfonyl)-7-methoxyimidazo[1,2-a]pyridin-3-yl)-3-fluoro-2-methoxyphenyl)-2-hydroxypyrimidine-5-sulfonamide]	> 1000	55 to 80	2.5 to 20	2.5 to 20
CC(C)(C)S(=O)(=O)c1cn2c(-c3ccc(N)nc3F)cnc2cc1OCCO [Example 249, 2-((3-(6-amino-2-fluoropyridin-3-yl)-6-(tert-butylsulfonyl)imidazo [1,2-a]pyridin-7-yl)oxy)ethan-1-ol]	> 1000	> 80	> 20	> 20
C[C@@H](O)COc1cc2ncc(-c3ccc(N)nc3F)n2cc1S(=O)(=O)C(C)(C)C [Example 250, (R)-1-((3-(6-amino-2-fluoropyridin-3-yl)-6-(tert-butylsulfonyl)imidazo [1,2-a]pyridin-7-yl)oxy)propan-2-ol]	> 1000	> 80	> 20	2.5 to 20
C[C@@H](O)COc1cc2ncc(-c3cc4cc[nH]c4nc3F)n2cc1S(=O)(=O)C(C)(C)C [Example 251, (R)-1-((6-(tert-butylsulfonyl)-3-(6-fluoro-1H-pyrrolo[2,3-b]pyridin-5-yl)imidazo[1,2-a]pyridin-7-yl)oxy)propan-2-ol]	< 50	> 80	< 1	< 1
CCS(=O)(=O)Nc1cc(-c2cnc3cc(OC[C@@H](C)O)c(S(=O)(=O)C(C)(C)C)cn23)cc(F)c1OC [Example 252, (R)-N-(5-(6-(tert-butylsulfonyl)-7-(2-hydroxypropoxy)imidazo[1,2-a]pyridin-3-yl)-3-fluoro-2-methoxyphenyl) ethanesulfonamide]	< 50	> 80	< 1	< 1
COc1c(F)cc(-c2cnc3cc(OC[C@@H](C)O)c(S(=O)(=O)C(C)(C)C)cn23)cc1NS(=O)(=O)c1cnn(C)c1 [Example 253, (R)-N-(5-(6-(tert-butylsulfonyl)-7-(2-hydroxypropoxy)imidazo [1,2-a]pyridin-3-yl)-3-fluoro-2-methoxyphenyl)-1-methyl-1H-pyrazole-4-sulfonamide]	< 50	> 80	< 1	1 to 2.5
C[C@@H](O)COc1cn2ncc(-c3cc(Cl)c(N)nc3F)c2cc1S(=O)(=O)C(C)(C)C [Example 254, (R)-1-((3-(6-amino-5-chloro-2-fluoropyridin-3-yl)-5-(tert-butylsulfonyl)pyrazolo [1,5-a]pyridin-6-yl)oxy)propan-2-ol]	50 to 250	> 80	1 to 2.5	1 to 2.5
COc1c(F)cc(-c2cnc3cc(OC[C@@H](C)O)c(S(=O)(=O)C(C)(C)C)cn23)cc1NS(C)(=O)=O [Example 255, (R)-N-(5-(6-(tert-butylsulfonyl)-7-(2-hydroxypropoxy)imidazo [1,2-a]pyridin-3-yl)-3-fluoro-2-methoxyphenyl) methanesulfonamide]	50 to 250	55 to 80	< 1	1 to 2.5
CC(C)(C)S(=O)(=O)c1cn2c(-c3cc(Cl)c(N)nc3F)cnc2cc1NCCO [Example 256, 2-((3-(6-amino-5-chloro-2-fluoropyridin-3-yl)-6-(tert-butylsulfonyl)imidazo [1,2-a]pyridin-7-yl)amino)ethan-1-ol]	< 50	> 80	< 1	1 to 2.5
